Activity calls are given as the source filed them. The calls are words filed in the database; no cut-off is given here.
Legend:
[1] = system: HEK293; experiment: Cytotoxicity against human HEK293 cells after 72 hrs by MTT assay; assay type: functional, cell-based; conditions: HEK293, 72 h
[2] = Cytotoxicity against human H460 cells after 72 hrs by MTT assay; assay type: functional, cell-based; conditions: NCI-H460, 72 h
[3] = system: MCF7; experiment: Cytotoxicity against human MCF7 cells after 72 hrs by MTT assay; assay type: functional, cell-based; conditions: MCF7, 72 h
[4] = Cytotoxicity against human KB-3-1 cells after 72 hrs by MTT assay; assay type: functional, cell-based; conditions: KB 3-1, 72 h
[5] = system: HEK293; experiment: Cytotoxicity against human HEK293 cells assessed as inhibition of cell survival at 5 to 15 uM after 72 hrs by MTT assay relative to control; assay type: functional, cell-based
[6] = system: MCF7; experiment: Cytotoxicity against human MCF7 cells assessed as inhibition of cell survival at 5 to 15 uM after 72 hrs by MTT assay relative to control; assay type: functional, cell-based
[7] = system: NCI-H460; experiment: Cytotoxicity against human H460 cells assessed as inhibition of cell survival at 5 to 15 uM after 72 hrs by MTT assay relative to control; assay type: functional, cell-based
[8] = system: KB 3-1; experiment: Cytotoxicity against human KB-3-1 cells assessed as inhibition of cell survival at 5 to 15 uM after 72 hrs by MTT assay relative to control; assay type: functional, cell-based
[9] = system: MCF7; experiment: Cytotoxicity against human MCF7 cells assessed as inhibition of cell survival at 0.5 uM after 72 hrs by MTT assay relative to control; assay type: functional; conditions: MCF7, 72 h
[10] = system: HEK293; experiment: Cytotoxicity against human HEK293 cells assessed as inhibition of cell survival at 0.5 uM after 72 hrs by MTT assay relative to control; assay type: functional; conditions: HEK293, 72 h
[11] = Cytotoxicity against human H460 cells assessed as inhibition of cell survival at 0.5 uM after 72 hrs by MTT assay relative to control; assay type: functional; conditions: NCI-H460, 72 h

Compound	IC50 [1] [nM]	IC50 [2] [nM]	IC50 [3] [nM]	IC50 [4] [nM]	inhibition [5]	inhibition [6]	inhibition [7]	inhibition [8]	inhibition at 0.5 µM [9] [%]	inhibition at 0.5 µM [10] [%]	inhibition at 0.5 µM [11] [%]
CCCCCCCCCCCCCCCCCC(=O)Oc1ccc(C(=O)c2cc(OC)c(OC)c(OC)c2)cc1OC	15600	17600	26900	16900	–	–	–	–	–	–	–
COc1cc2c(c(OC)c1OC)-c1ccc(OC)c(=O)cc1[C@@H](NC(C)=O)CC2 [COLCHICINE]	9	–	19	18	–	–	–	–	–	–	–
CCCCCCCC/C=C\CCCCCCCC(=O)Oc1cc(C(=O)c2cc(OC)c(OC)c(OC)c2)ccc1OC	950	909	943	786	–	–	–	–	–	–	–
COc1ccc(C(=O)c2cc(OC)c(OC)c(OC)c2)cc1O [PHENSTATIN]	23	20	19	15	–	–	–	–	–	–	–
CCCCC/C=C\C/C=C\CCCCCCCC(=O)Oc1ccc(C(=O)c2cc(OC)c(OC)c(OC)c2)cc1OC	903	867	745	547	Active	Active	Active	Active	–	–	–
CCCCC/C=C\C/C=C\CCCCCCCC(=O)Oc1cc(C(=O)c2cc(OC)c(OC)c(OC)c2)ccc1OC	210	176	181	163	–	–	–	–	20	20	20
CCCCCCCCCCCCCCCCCC(=O)Oc1cc(C(=O)c2cc(OC)c(OC)c(OC)c2)ccc1OC	2640	4700	3350	2780	–	–	–	–	–	–	–
CCCCCCCC/C=C\CCCCCCCC(=O)Oc1ccc(C(=O)c2cc(OC)c(OC)c(OC)c2)cc1OC	2360	2200	2170	1720	–	–	–	–	–	–	–
COc1cc(C(=O)c2cc(OC)c(OC)c(OC)c2)ccc1O [ISOPHENSTATIN]	196	188	199	146	–	–	–	–	–	–	–

Source: ChEMBL document CHEMBL2434821, “New phenstatin-fatty acid conjugates: synthesis and evaluation” (Bioorg Med Chem Lett, 2013)
